Experimental data taken from patent publication US20100279942A1, “METHODS FOR TREATING MOTOR NEURON DISEASE” (priority 2004, published 2010).
Ends that are not written are not given here.

System: NSC34 cells transformed with SOD1 mutant (A4T-SOD1, G85R-SOD1, G93R-SOD1) genes
Assay: Neuronal cell death test, Trypan blue exclusion assay, NSC34 cells transformed with SOD1 mutant genes
Type: cell-based, mouse
Experimental: NSC34 cell, the hybrid cell of primary cultured, motor neuron-system embryonic mouse spinal cord cell with mouse neuroblastoma NTG18 cell, was cultured in […] medium containing 10% FBS and antibiotics (Cashman N R, et al., 1992, Dev Dyn 194: 209-221; and Durham H D, et al, 1993, Neurotoxicology 14: 387-395).
The NSC34 cells (7×10^4 cells/well, 6-well plate, 12 to 16-hour culture in DMEM (10% FBS) medium) were transformed with wild-type or SOD1 mutant (A4T, G85R, and G93R) genes by lipofection (0.5 μg of each SOD1 gene; 1 μl of LipofectAMINE; 2 μl of PLUS Reagent) under serum-free conditions for 3 hours and cultured for 21 hours in DMEM (10% FBS) and after 48 hours in DMED supplemented with N2 supplement (Invitrogen). After 72 hours of the transformation, cell mortality was measured by Trypan blue exclusion assay in the same way as above.
F11 or NSC34 cells were transformed with pEF-BOS, A4T-SOD1, G85R-SOD1, or G93R-SOD1 cDNA in the presence of increasing concentrations (10 aM, 1 fM, 100 fM, 10 pM, 1 nM, and 100 nM) of ADNF. After 72 hours, cell mortality was measured by Trypan blue exclusion assay.

Sequence: SALLRSIPA [ADNF, short peptide consisting of nine amino acid residues]
- inhibition of neuronal cell death caused by SOD1 mutant genes (100 fM ADNF, three SOD1 mutant genes, 72 hours): can completely inhibit neuronal cell death
- inhibitory effect on neuronal cell death at high concentration (ADNF at concentrations equal to or above 10 nM): not decreased
